One data set concerns the target T1, human PDE10A full length (Homo sapiens, UniProt Q9Y233).
T1 construct: purchased Enzo Life Science, Lausen, Switzerland SE-534
Nature of the data set: PDE10A Scintillation Proximity Assay (SPA), human PDE10A full length assay. The class given is biochemical. The conditions noted are these: 50 nM cGMP + 50 nM [3H]-cGMP, 20 minutes at room temperature, read-out: PDE10A inhibition IC50. The essentials: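 SPA format with full-length enzyme in 20 mM HEPES pH 7.5, 10 mM MgCl2, 0.05 mg/ml BSA, substrate 50 nM cGMP plus 50 nM [3H]-cGMP. Reaction started with substrate, run 20 min at room temperature, stopped with YSi-SPA beads in zinc sulphate. IC50 from scintillation counts over an inhibitor concentration range.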
A general note: SPA uses beads or plates that emit light when radiolabelled molecules are held near them.

pIC50: −log10 of the molar value. Bounds are passed on as bounds.

T1 sequence (Q9Y233 1-779 isoform Q9Y233-1): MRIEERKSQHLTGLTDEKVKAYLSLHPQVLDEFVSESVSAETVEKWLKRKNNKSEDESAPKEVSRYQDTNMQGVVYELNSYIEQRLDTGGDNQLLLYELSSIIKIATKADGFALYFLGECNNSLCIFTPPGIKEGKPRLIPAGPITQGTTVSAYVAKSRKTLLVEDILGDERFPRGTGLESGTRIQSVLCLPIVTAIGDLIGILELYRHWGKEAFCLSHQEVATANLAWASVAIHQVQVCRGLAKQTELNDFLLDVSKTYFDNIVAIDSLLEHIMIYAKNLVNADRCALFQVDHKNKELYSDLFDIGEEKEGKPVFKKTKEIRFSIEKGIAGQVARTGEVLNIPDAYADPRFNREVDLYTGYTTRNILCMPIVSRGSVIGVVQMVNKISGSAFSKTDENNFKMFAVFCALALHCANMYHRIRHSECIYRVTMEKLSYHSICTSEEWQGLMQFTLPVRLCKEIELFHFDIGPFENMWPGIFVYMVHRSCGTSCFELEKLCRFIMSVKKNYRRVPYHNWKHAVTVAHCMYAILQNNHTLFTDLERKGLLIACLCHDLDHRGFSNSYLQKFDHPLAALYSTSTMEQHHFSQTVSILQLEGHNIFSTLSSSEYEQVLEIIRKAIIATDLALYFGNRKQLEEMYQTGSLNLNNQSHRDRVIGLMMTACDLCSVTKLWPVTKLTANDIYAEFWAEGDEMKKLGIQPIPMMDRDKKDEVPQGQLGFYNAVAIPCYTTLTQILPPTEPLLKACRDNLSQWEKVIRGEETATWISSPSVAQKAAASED

The pIC50 is the IC50 on a negative log10 scale, so that one unit is a factor of ten. A word on the melting point: it is the temperature of the solid-liquid transition. `COCCNC(=O)c1nc2cc(NC(=O)c3c(C(=O)N4CCC4)cnn3C)ccn2n1` [Example 64, 7-(4-(Azetidine-1-carbonyl)-1-methyl-1H-pyrazole-5-carboxamido)-N-(2-methoxyethyl)-[1,2,4]triazolo[1,5-a]pyridine-2-carboxamide] displayed a melting point of 159 to 161 °C. For the same compound, on human PDE10A full length, the pIC50 was 6.98.
Consider `Cn1ncc(C(=O)N2CCC2)c1C(=O)Nc1ccn2nc(Br)nc2c1` [Example 65, 4-(Azetidine-1-carbonyl)-2-methyl-2H-pyrazole-3-carboxylic acid (2-bromo-[1,2,4]triazolo[1,5-a]pyridin-7-yl)-amide], for which the melting point was more than 250 °C. The pIC50 at human PDE10A full length was 7.17.
Consider `Cn1ncc(C(=O)N2CCC2)c1C(=O)Nc1ccn2nc(-c3ccncc3)nc2c1` [Example 66, 4-(Azetidine-1-carbonyl)-2-methyl-2H-pyrazole-3-carboxylic acid (2-pyridin-4-yl-[1,2,4]triazolo[1,5-a]pyridin-7-yl)-amide], for which the melting point was more than 250 °C. Besides, the negative-log IC50 (pIC50) at human PDE10A full length was 8.74.
Turning to `Cc1cc(-c2nc3cc(NC(=O)c4c(C(=O)N5CCC5)cnn4C)ccn3n2)ccn1` [Example 67, 4-(Azetidine-1-carbonyl)-2-methyl-2H-pyrazole-3-carboxylic acid [2-(2-methyl-pyridin-4-yl)-[1,2,4]triazolo[1,5-a]pyridin-7-yl]-amide], the melting point was 210 to 211 °C. The pIC50 on human PDE10A full length is 8.69.
Compound `Cc1cncc(-c2nc3cc(NC(=O)c4c(C(=O)N5CCC5)cnn4C)ccn3n2)c1` [Example 68, 4-(Azetidine-1-carbonyl)-2-methyl-2H-pyrazole-3-carboxylic acid [2-(5-methyl-pyridin-3-yl)-[1,2,4]triazolo[1,5-a]pyridin-7-yl]-amide] gave a melting point of 262 to 264 °C. In addition, the pIC50 at human PDE10A full length was 7.95.
For `CN(CCF)c1nc2cc(NC(=O)c3c(C(=O)N4CCC4)cnn3C)ccn2n1` [Example 70, 4-(Azetidine-1-carbonyl)-2-methyl-2H-pyrazole-3-carboxylic acid {2-[(2-fluoro-ethyl)-methyl-amino]-[1,2,4]triazolo[1,5-a]pyridin-7-yl}-amide] the same measures were 236 to 237 °C and 8.25.
Compound `CN(CCF)c1nc2cc(NC(=O)c3c(C(=O)N4CCOCC4)cnn3C)ccn2n1` [Example 71, 2-Methyl-4-(morpholine-4-carbonyl)-2H-pyrazole-3-carboxylic acid {2-[(2-fluoro-ethyl)-methyl-amino]-[1,2,4]triazolo[1,5-a]pyridin-7-yl}-amide] showed a melting point of 144 to 145 °C. Further, the pIC50 on human PDE10A full length was 8.21.
As to `CN(C)C(=O)c1cnn(C)c1C(=O)Nc1ccn2nc(N(C)CCF)nc2c1` [Example 72, 2-Methyl-2H-pyrazole-3,4-dicarboxylic acid 4-dimethylamide 3-({2-[(2-fluoro-ethyl)-methyl-amino]-[1,2,4]triazolo[1,5-a]pyridin-7-yl}-amide)], the melting point is 203 to 204 °C. The pIC50 on human PDE10A full length was 7.69.
For `CCN(C)C(=O)c1cnn(C)c1C(=O)Nc1ccn2nc(N(C)CCF)nc2c1` [Example 73, 2-Methyl-2H-pyrazole-3,4-dicarboxylic acid 4-(ethyl-methyl-amide) 3-({2-[(2-fluoro-ethyl)-methyl-amino]-[1,2,4]triazolo[1,5-a]pyridin-7-yl}-amide)] the same measures were 145 to 147 °C and 7.94.
In turn, `CN(CCF)c1nc2cc(NC(=O)c3c(C(=O)N(C)C4CC4)cnn3C)ccn2n1` [Example 74, 2-Methyl-2H-pyrazole-3,4-dicarboxylic acid 4-(cyclopropyl-methyl-amide)3-({2-[(2-fluoro-ethyl)-methyl-amino]-[1,2,4]triazolo[1,5-a]pyridin-7-yl}-amide)] gave a melting point of 148 to 151 °C. Moreover, on human PDE10A full length, the negative-log IC50 (pIC50) is 8.73.
The compound `COc1ccccc1-c1nc2cc(NC(=O)c3c(C(=O)N4CCC4)cnn3C)ccn2n1` [Example 102, 4-(Azetidine-1-carbonyl)-2-methyl-2H-pyrazole-3-carboxylic acid [2-(2-methoxy-phenyl)-[1,2,4]triazolo[1,5-a]pyridin-7-yl]-amide] yielded a melting point of 258.1 °C. Besides, the pIC50 at human PDE10A full length is 9.19.
For the compound `COc1ccccc1-c1nc2cc(NC(=O)c3c(C(=O)N(C)C4CC4)cnn3C)ccn2n1` [Example 103, 2-Methyl-2H-pyrazole-3,4-dicarboxylic acid 4-(cyclopropyl-methyl-amide)3-{[2-(2-methoxy-phenyl)-[1,2,4]triazolo[1,5-a]pyridin-7-yl]-amide}], the melting point was found to be 239.2 °C. Further, at human PDE10A full length, the pIC50 is 9.51.
For `CN(C)C(=O)c1cnn(C)c1C(=O)Nc1ccn2nc(-c3cccc(F)c3)nc2c1` [Example 104, 2-Methyl-2H-pyrazole-3,4-dicarboxylic acid 4-dimethylamide 3-{[2-(3-fluoro-phenyl)[1,2,4]triazolo[1,5-a]pyridin-7-yl]-amide}] the same measures were 255 to 260 °C and 8.84.
For `Cn1ncc(C(=O)N2CCC2)c1C(=O)Nc1ccn2nc(-c3cccc(F)c3)nc2c1` [Example 105, 4-(Azetidine-1-carbonyl)-2-methyl-2H-pyrazole-3-carboxylic acid [2-(3-fluoro-phenyl)-[1,2,4]triazolo[1,5-a]pyridin-7-yl]-amide] the same measures were 232 to 236 °C and 8.95.
`Cn1ncc(C(=O)N2CCOCC2)c1C(=O)Nc1ccn2nc(-c3cccc(F)c3)nc2c1` [Example 106, 2-Methyl-4-(morpholine-4-carbonyl)-2H-pyrazole-3-carboxylic acid [2-(3-fluoro-phenyl)-[1,2,4]triazolo[1,5-a]pyridin-7-yl]-amide] returned a melting point of 212 to 214 °C. Further, the pIC50 at human PDE10A full length is 8.81.
For `COC1CN(C(=O)c2cnn(C)c2C(=O)Nc2ccn3nc(-c4cccc(F)c4)nc3c2)C1` [Example 107, 4-(3-Methoxy-azetidine-1-carbonyl)-2-methyl-2H-pyrazole-3-carboxylic acid [2-(3-fluoro-phenyl)-[1,2,4]triazolo[1,5-a]pyridin-7-yl]-amide] the same measures were 255 to 257 °C and 8.33.
On to `CN(C)C(=O)c1cnn(C)c1C(=O)Nc1ccn2nc(-c3cccnc3F)nc2c1` [Example 109, N5-(2-(2-fluoropyridin-3-yl)-[1,2,4]triazolo[1,5-a]pyridin-7-yl)-N4,N4,1-trimethyl-1H-pyrazole-4,5-dicarboxamide], for which the melting point was in the range of 249 to 251 °C. Besides, the pIC50 on human PDE10A full length is 8.43.
Compound `Cn1ncc(C(=O)N2CCOCC2)c1C(=O)Nc1ccn2nc(-c3cccnc3F)nc2c1` [Example 111, 2-Methyl-4-(morpholine-4-carbonyl)-2H-pyrazole-3-carboxylic acid [2-(2-fluoro-pyridin-3-yl)-[1,2,4]triazolo[1,5-a]pyridin-7-yl]-amide] showed a melting point of 267 to 269 °C. Further, the pIC50 on human PDE10A full length was 8.18.
For `Cn1ncc(C(=O)N2CC3(COC3)C2)c1C(=O)Nc1ccn2nc(N3CCOCC3)nc2c1` [Example 112, 2-Methyl-4-(2-oxa-6-aza-spiro[3.3]heptane-6-carbonyl)-2H-pyrazole-3-carboxylic acid (2-morpholin-4-yl-[1,2,4]triazolo[1,5-a]pyridin-7-yl)-amide] the same measures were more than 300 °C and 7.24.

Source of the values: patent publication US8349824B2, “Triazolopyridine compounds” (Hoffmann-La Roche Inc., priority 2010, dated 2013).
